Measured values from ChEMBL document CHEMBL3507680, “University of Dundee, Gates Library screen for HepG2 cell viability”.

Test: Human HepG2 cell viability assay in 384 well format
Type: toxicity, cell-based
Parameters: dose 125 nL, time 70.5 hour; concentration not given beside the values
Settings: HepG2 cells, read-out: Inhibition

NC(=O)CCN1C(=O)CC(Cc2ccc(F)cc2)C1=O (centres undefined)
cytotoxicity at 70.5 h: -11.2%

CC(C)C(=O)N1CCC2(CC1)NC(=O)c1ccccc12
cytotoxicity at 70.5 h: -2.39%

CN(C)C(=O)c1cn2cc(-c3cccc(Cl)c3)n(CC3CC3)c(=O)c2n1
cytotoxicity at 70.5 h: -5.52%

Cn1cnc(S(=O)(=O)N2CCCc3cccc(F)c32)c1Cl
cytotoxicity at 70.5 h: -0.174%

COc1cc(C)nc(N2CCN(C(C)c3nc(C4CC4)no3)CC2)n1 (centres undefined)
cytotoxicity at 70.5 h: -10.4%

O=C(c1cccc2c1OCO2)N1CCCC(n2ccnc2)C1 (centres undefined)
cytotoxicity at 70.5 h: -10.3%

COCCN(Cc1ccc(OC)nc1)Cc1cccs1
cytotoxicity at 70.5 h: 29.6%

CN(Cc1ccc(F)cc1)C(=O)Nc1cccnc1N1CCCC1
cytotoxicity at 70.5 h: -6.22%

CN(C)c1ncc(-c2cc(C(=O)NCCO)n(CC3CC3)c2)cn1
cytotoxicity at 70.5 h: -6%

CC(=O)N1CCC(c2ccnc(Nc3cnccn3)n2)C1 (centres undefined)
cytotoxicity at 70.5 h: -22.3%

CC(C)(C)OC(=O)N1CCN(c2ccc(F)cc2)CC1C(=O)O (centres undefined)
cytotoxicity at 70.5 h: -1.03%

CCNc1ccnc(N2Cc3cnc(CC(C)C)nc3C2)n1
cytotoxicity at 70.5 h: 18.4%

CC(C)c1nnc(NC(=O)c2cccc(OCC(F)(F)F)n2)[nH]1
cytotoxicity at 70.5 h: -3.15%

O=C(C1CCCO1)N1CCC(n2cc(-c3ccc(F)cc3)nn2)CC1 (centres undefined)
cytotoxicity at 70.5 h: 0.724%

CC(C)Cn1cncc1CNC1CCSCC1
cytotoxicity at 70.5 h: 42.7%

O=C(c1cc(Cl)ccc1OC1CCN(C2CCCC2)CC1)N1CC(O)C1
cytotoxicity at 70.5 h: 11.8%

O=C(CCNC(=O)N1CCC(c2ccccc2)C1)N1CCCCC1 (centres undefined)
cytotoxicity at 70.5 h: -13%

Cc1nc(N2CCOCC2)nc(C)c1NC(=O)COc1ccccc1
cytotoxicity at 70.5 h: -1.69%

CC(C)c1nnc2n1CCN(C(=O)c1ccnc(N(C)C)c1)C2
cytotoxicity at 70.5 h: -0.0863%

CCC1CCCCCN1C(=O)c1coc(S(=O)(=O)N(C)C)c1 (centres undefined)
cytotoxicity at 70.5 h: -12.3%

CCn1ccc(NC(=O)c2cc(C)on2)n1
cytotoxicity at 70.5 h: -8.5%

O=C(NCCCO)Nc1cccc(C[S+]([O-])Cc2ccccc2)c1 (centres undefined)
cytotoxicity at 70.5 h: -4.46%

NC(=O)CN(C(=O)c1cccc(C(F)(F)F)c1)C1CCCC1
cytotoxicity at 70.5 h: -6%

COCCn1ccc2ccc(C(=O)O)cc21
cytotoxicity at 70.5 h: -9.99%

Cc1ncsc1C(=O)NC1CCN(CCC#N)CC1
cytotoxicity at 70.5 h: 16.5%

CC(CCSc1ccccc1)N1CCCN(C(N)=O)CC1 (centres undefined)
cytotoxicity at 70.5 h: 28.8%

CN(CCOc1ccc(Cl)cc1)Cc1ccc(S(=O)(=O)N(C)C)o1
cytotoxicity at 70.5 h: -2.41%

CC(C)Oc1ccc(CNC(=O)c2cc(C(N)=O)cs2)cc1F
cytotoxicity at 70.5 h: -12.2%

COc1ccc2c(c1)OCC(Cc1cc(C(=O)N3CCCC3)ccn1)C2 (centres undefined)
cytotoxicity at 70.5 h: -32.3%

CN(CCc1ccccn1)C(=O)C1Cc2ccccc2CN1C (centres undefined)
cytotoxicity at 70.5 h: -10.6%

Cc1ccc(N2CCCN(C(=O)c3cccc4c3ccn4C)CC2)nn1
cytotoxicity at 70.5 h: -7.32%

Cc1ccc(F)c(C(=O)Nc2c(C(N)=O)n[nH]c2C)c1
cytotoxicity at 70.5 h: -10.1%

COc1nonc1NCn1nc(C)cc1C
cytotoxicity at 70.5 h: 51.2%

Cc1nccn1CCCNc1ncccc1C#N
cytotoxicity at 70.5 h: -13.8%

CC(Sc1n[nH]c(-c2ccc3c(c2)CCC3)n1)C(N)=O (centres undefined)
cytotoxicity at 70.5 h: 0.8%

O=C(Cc1c[nH]c2ccccc12)NCC1CCN(Cc2c[nH]cn2)C1 (centres undefined)
cytotoxicity at 70.5 h: -6.01%

CN(C)C(=O)N1CCO[C@@H]2CC(COCc3cccnc3)C[C@H]21 (some centres undefined)
cytotoxicity at 70.5 h: -1.44%

Cn1cc(C#N)c(=O)n(CC(O)c2ccccc2F)c1=O (centres undefined)
cytotoxicity at 70.5 h: -13.2%

CN(C)CC1(O)CCN(C(=O)Cc2ccc3c(c2)CCC3)C1 (centres undefined)
cytotoxicity at 70.5 h: 0.63%

Cc1cc(-c2cnc(NCc3ccncc3)nc2C(C)C)on1
cytotoxicity at 70.5 h: 2.62%

CS(=O)(=O)N1CC2(CCN(Cc3ccccn3)C2)Cc2ccccc21 (centres undefined)
cytotoxicity at 70.5 h: -8%

COc1cc(N2CC3(CCN(c4ncccn4)C3)C2)ncn1
cytotoxicity at 70.5 h: -9.27%

CSc1ncccc1C(=O)NCCC(O)c1ccco1 (centres undefined)
cytotoxicity at 70.5 h: 1.61%

CS(=O)(=O)CCC(=O)NC(Cc1ccccc1)C1CC1 (centres undefined)
cytotoxicity at 70.5 h: -4.37%

CC1c2ncc(COc3cccnc3)n2CCN1C(=O)Cc1ccco1 (centres undefined)
cytotoxicity at 70.5 h: -13.8%

Cc1ccc(SC2CCCC2)c(C(=O)NCCc2n[nH]c(=O)[nH]2)c1
cytotoxicity at 70.5 h: 2.84%

COc1ccccc1CN(C)C(=O)c1cc(CN2CCC(O)CC2)on1
cytotoxicity at 70.5 h: -0.685%

Cc1cc(CN(C)C(=O)C(c2ccccc2)N2CCSCC2)no1 (centres undefined)
cytotoxicity at 70.5 h: 8.49%

CCOc1ncccc1CNS(=O)(=O)c1ccc2c(c1)CCC2
cytotoxicity at 70.5 h: 4.98%

Cn1cnnc1C1CCCN(Cc2nc(Cc3ccccc3)no2)C1 (centres undefined)
cytotoxicity at 70.5 h: 13%

COCc1cc(O)nc(C2CCCN(Cc3ccc(OC)cc3)C2)n1 (centres undefined)
cytotoxicity at 70.5 h: -2.96%

CCOCC1CN(Cc2cccc(C#N)c2)Cc2nccn2C1 (centres undefined)
cytotoxicity at 70.5 h: -1.89%

Cc1[nH]ncc1C(=O)N1CCN(CC(O)C(C)(C)C)CC1 (centres undefined)
cytotoxicity at 70.5 h: -14.9%

c1coc(CN2CCOC3(COCCN(Cc4ccncc4)C3)C2)c1 (centres undefined)
cytotoxicity at 70.5 h: -3.4%

CN(C)C(=O)NCc1nnn2c1CN(CC1CCOCC1)CCC2
cytotoxicity at 70.5 h: 0.222%

CN(C)C(=O)N1CCC(C(=O)NCCNc2ncccc2C#N)CC1
cytotoxicity at 70.5 h: -4.63%

COc1cccc(S(=O)(=O)N2C[C@@H](N(C)C)[C@H](C(C)C)C2)c1
cytotoxicity at 70.5 h: -0.713%

COc1cccc(CN(C)Cc2c(C)noc2C)c1OC
cytotoxicity at 70.5 h: -3.33%

CC(C)[C@@H]1CN(C(=O)NCc2ccco2)C[C@H]1NS(=O)(=O)N(C)C
cytotoxicity at 70.5 h: 17.9%

Cc1ncc2c(n1)CCN(CCCc1nc3ccccc3o1)C2
cytotoxicity at 70.5 h: -2.27%

c1ccc(COC[C@H]2CCC[C@@]23CNCCO3)nc1
cytotoxicity at 70.5 h: 15.4%

CCc1oc(C(=O)NC(C)c2ncn[nH]2)cc1CN1CCCC1 (centres undefined)
cytotoxicity at 70.5 h: -10.5%

C[C@@H]1CN(C(=O)c2ccc(Br)cc2F)CC(C(N)=O)O1 (some centres undefined)
cytotoxicity at 70.5 h: -4.88%

Cc1ccc(C(=O)NC2CCN(C(C)C)C2)c(=O)[nH]1 (centres undefined)
cytotoxicity at 70.5 h: -14.4%

COCCN(CC(N)=O)CC1CCCN(C2Cc3ccccc3C2)C1 (centres undefined)
cytotoxicity at 70.5 h: 7.41%

Cc1noc(Cl)c1CCC(=O)N1CCc2sccc2C1
cytotoxicity at 70.5 h: -1.52%

COc1ccc(Cl)cc1-n1cnc(CCNC(C)=O)c1
cytotoxicity at 70.5 h: -4.49%

Cc1nn(C)c(C)c1C1CCCN1CC(=O)Nc1ccncc1 (centres undefined)
cytotoxicity at 70.5 h: -7.94%

Cc1ccc(NC2CCN(C(=O)c3ccsc3)CC2)nn1
cytotoxicity at 70.5 h: -3.84%

CC(C)N(C)C(=O)C1=NOC2(CCN(C(=O)c3cccn3C)C2)C1 (centres undefined)
cytotoxicity at 70.5 h: 24.9%

CS(=O)(=O)CC1(CNc2ccc(C#N)c(C(F)(F)F)c2)CC1
cytotoxicity at 70.5 h: -3.35%

COCCC(=O)NCC(O)c1c(F)cccc1F (centres undefined)
cytotoxicity at 70.5 h: -7.9%

Cc1nn(CC(=O)NCc2cc3n(n2)CCCN(CC(C)C)C3)cc1Cl
cytotoxicity at 70.5 h: 9.44%

O=C(Cc1cnc(-c2c(Cl)cccc2Cl)s1)N1CCOCC1
cytotoxicity at 70.5 h: -13.9%

Cc1cc(=O)n(CCNS(=O)(=O)c2ccccc2)cn1
cytotoxicity at 70.5 h: -1.2%

COCCN1C(=O)CC[C@@H]2[C@H]1CCN2Cc1ccc(C)s1
cytotoxicity at 70.5 h: -11.5%

Cc1cc2n(n1)CC(CNC1CCN(Cc3ccccc3C)CC1)CN2 (centres undefined)
cytotoxicity at 70.5 h: 5.18%

O=C(c1ccoc1)N1CCO[C@]2(CCC[C@H]2COCc2cccnc2)C1
cytotoxicity at 70.5 h: -0.748%

CC(C)N1CCC(O)(CNC(=O)CC2OCCc3ccccc32)CC1 (centres undefined)
cytotoxicity at 70.5 h: 4.01%

O=c1ccn([C@H]2CCN(Cc3ncc[nH]3)CC[C@@H]2O)c(=O)[nH]1
cytotoxicity at 70.5 h: -4.85%

CC(C)(C)OC(=O)N[C@H]1CCN(C(=O)c2cc(Cl)c[nH]2)C1
cytotoxicity at 70.5 h: -4.47%

CNC(=O)CN1CCCC1c1ccccc1Br (centres undefined)
cytotoxicity at 70.5 h: -6.18%

CN(C)c1nc2c(c(=O)[nH]1)CCN(C(=O)c1cccc3nccnc13)C2
cytotoxicity at 70.5 h: 2.31%

COc1ccccc1CNC(=O)C1=NN(c2ccc(C)cc2)C(=O)CN1
cytotoxicity at 70.5 h: -4.66%

Cc1ccc(CN2C[C@@H]3CCCO[C@@H]3[C@H](NC(=O)CC3CC3)C2)s1
cytotoxicity at 70.5 h: -1.25%

CC(C)CC(C)NCCCN1CCCN(C)CC1 (centres undefined)
cytotoxicity at 70.5 h: 21.1%

COC(=O)CCN1CCC(C(=O)c2cc(F)ccc2F)CC1
cytotoxicity at 70.5 h: -12.5%

CCc1nc(CSCc2csc(CS(C)(=O)=O)n2)cs1
cytotoxicity at 70.5 h: -1.17%

CCCn1nccc1-c1cc(C2CCN(S(C)(=O)=O)CC2)ccn1
cytotoxicity at 70.5 h: -6.09%

N#CC1(NC(=O)CN2CCc3c(ncn3C3CC3)C2)CCCC1
cytotoxicity at 70.5 h: -2.71%

O=C(NCc1ccco1)c1cc(N2CC[C@@H](O)C2)ccn1
cytotoxicity at 70.5 h: 30.9%

Cc1cc(C)n(CC2CN(Cc3cnc(C)s3)CCO2)n1 (centres undefined)
cytotoxicity at 70.5 h: 16.8%

CCc1noc(C(C)N2CCN(C(=O)CN3CCOCC3)CC2)n1 (centres undefined)
cytotoxicity at 70.5 h: 0.684%

O=C(CC1CC1)NCc1cn2c(n1)CN(CC1CC1)CC2
cytotoxicity at 70.5 h: -19.5%

CC(CS(C)(=O)=O)N(C(=O)CCc1ccc(Cl)s1)C1CC1 (centres undefined)
cytotoxicity at 70.5 h: -3.37%

O=C(NCC1(O)CCc2ccccc2C1)c1cccs1 (centres undefined)
cytotoxicity at 70.5 h: -14.5%

Cc1cc(F)ccc1C(=O)N1C[C@@H]2COC[C@]2(CN(C)C)C1
cytotoxicity at 70.5 h: -14.9%

Cc1ccc(CNC(=O)NC2CCCN(c3ncccn3)C2)n1C (centres undefined)
cytotoxicity at 70.5 h: -8.01%

Cc1cc(CN2CCN(C(=O)Cc3ccccc3F)CC2)on1
cytotoxicity at 70.5 h: -14%

Cc1cc(F)ccc1OC1(C(=O)O)CCN(Cc2cccnc2)CC1
cytotoxicity at 70.5 h: 3.7%

COCc1noc(CCNC(=O)c2ccc(C3CCCO3)s2)n1 (centres undefined)
cytotoxicity at 70.5 h: 8.28%

O=C(c1ccncc1F)N1CC[C@@H]2OC(COCC3CC3)CC[C@@H]21 (some centres undefined)
cytotoxicity at 70.5 h: 5.27%

CC(C)c1nc(N2CCN3CCCC3C2)c2cnn(C)c2n1 (centres undefined)
cytotoxicity at 70.5 h: 1.45%

CO[C@H]1CN(C(=O)c2ccnnc2)[C@@H]2COC[C@H]12
cytotoxicity at 70.5 h: 36.6%

COCCn1ccc(NC(=O)Nc2ccc(C(N)=O)c(F)c2)n1
cytotoxicity at 70.5 h: 13.6%

CC(C(=O)NCc1cccs1)N1CCN(Cc2nccn2C)CC1 (centres undefined)
cytotoxicity at 70.5 h: 13.2%

COc1ccc(OC)c(NC(=O)c2c(C)cn(C)c2CC(=O)O)c1
cytotoxicity at 70.5 h: -5.28%

c1coc(-c2noc(CN3CCc4c(ncn4C4CC4)C3)n2)c1
cytotoxicity at 70.5 h: 1.12%

Nc1cc2c(nn1)CCN(C(=O)c1ccc(-c3ccco3)[nH]c1=O)C2
cytotoxicity at 70.5 h: -1.23%

O=C(NC1CC1)N1CCOC2(CCCN(c3cccc(F)c3)C2)C1 (centres undefined)
cytotoxicity at 70.5 h: -3.8%

Cc1nc(C)n(CC2CCCN2Cc2nnc(-c3ccco3)o2)n1 (centres undefined)
cytotoxicity at 70.5 h: 11.1%

COc1cc(N2CC[C@@H]3O[C@H](C(=O)N(C)C)C[C@@H]32)ncn1
cytotoxicity at 70.5 h: -17.2%

Cn1nc(N2CCCC(C(=O)Nc3nc4ccccc4s3)C2)ccc1=O (centres undefined)
cytotoxicity at 70.5 h: 1.88%

O=C(c1cncc(NCC2COc3ccccc3C2)n1)N1CCOCC1 (centres undefined)
cytotoxicity at 70.5 h: -7.07%
